{
  "source": "patent US11549147B2",
  "about": "“Treatment of atopic dermatitis with tradipitant” (VANDA PHARMACEUTICALS INC., priority 2017, dated 2023)",
  "format_in_all_cases": "in vivo, human",
  "key": {"[1]": {"tested_on": "change of Worst Itch (VAS) in patients suffering from atopic dermatitis", "experiment": "INADL variants modifying change of Worst Itch (VAS) in the treated cohort (Example 6, Table 12)", "description": "In addition, within the treated cohort described herein in Example 4, Table 6, the top loci identified as modifying change of Worst Itch (VAS) are variants located within INADL gene, shown below in Table 12."}, "[2]": {"tested_on": "chronic pruritus in patients with atopic dermatitis", "experiment": "Phase II proof of concept study VP-VLY-686-2101: tradipitant monotherapy vs placebo (Example 1)", "parameters": "key to VAS Worst change / VAS Worst change, Diff / VAS Average change / VAS Average change, Diff: VAS points in mm; VRS change / VRS change, Diff / FBI / FBI, Diff / CGIC / CGIC, Diff: scale not given here", "conditions": "for CGIC / DLQI change / FBI / SCORAD change / VAS Average change / VAS Worst change / VRS change: 100 mg qd evening; for CGIC, Diff / DLQI change, Diff / FBI, Diff / SCORAD change, Diff / VAS Average change, Diff / VAS Worst change, Diff / VRS change, Diff: Diff tradipitant vs placebo", "method": "A phase II proof of concept clinical study (Study ID VP-VLY-686-2101, “Proof of Concept of VLY-686 in Subjects With Treatment-Resistant Pruritus Associated With Atopic Dermatitis”) is conducted, investigating the safety and efficacy of tradipitant as a monotherapy in the treatment of chronic pruritus in patients with atopic dermatitis.\nIn the study, patients with a Visual Analog Scale (VAS) score of greater than 70 mm during one of the two days preceding inclusion into the study are randomized to receive orally either 100 mg of tradipitant (n=34) or placebo (n=35) once a day in the evening. In the tradipitant arm of the study, tradipitant is orally administered to patients in capsules with standard excipients in an amount of 100 mg in the evening. Clinical assessments are made after 3 or 4 weeks of daily treatment, or at both 3 weeks and 4 weeks, each assessment being done in the morning of the day after last treatment or in the afternoon of the day after last treatment. The tradipitant is administered in an immediate release form comprising tradipitant and pharmaceutically acceptable excipients in a capsule. The tradipitant particle size is approximately: D10: <5 um, D50: <10 um, and D90: <25 um, wherein Dio means that 10% of the particles are of the indicated mean particle size, D50 means that 50% of the particles are of the indicated mean particle size, and D90 means that 90% of the particles are of the indicated mean particle size.\n(§1) Baseline VAS scores are 76.1 and 77.2 for the tradipitant and placebo arms respectively. Efficacy is evaluated through a number of clinical research instruments. In addition, at the time of efficacy evaluation blood samples are collected for PK analysis in order to determine the plasma levels of tradipitant."}, "[3]": {"experiment": "Plasma levels of tradipitant at time of efficacy evaluation, PK analysis (Example 1)", "conditions": "100 mg qd", "method": "as §1\nThe average plasma concentrations of tradipitant across AM and PM-evaluated patients are between about 125 ng/mL and about 225 ng/mL. Patients evaluated in the afternoons (PM) (mean=about 20 hours post last administration) tend to have lower plasma concentrations of tradipitant than patients evaluated in the mornings (AM) (mean=about 15 hours post last administration). The average plasma concentration in the PM group is about 125 ng/mL, and the average plasma concentration in the AM group is about 225 ng/mL, the difference being largely attributable to the length of time post-administration."}, "[4]": {"tested_on": "responders and non-responders to tradipitant treatment of atopic dermatitis", "experiment": "Association analysis of genetic markers with VAS response to tradipitant treatment (Example 6, Tables 10-11)", "method": "A further study is performed to identify additional genetic markers that correlate directly with a positive response to tradipitant treatment. To identify the genetic markers, an association analysis is conducted using a logistic additive model. Visual Analog Scale (VAS) is used as the response outcome metric. The identified variants are shown below in Table 10.\nUsing the top significant SNPs chosen by p-value cutoff, individuals are classified on responder status to tradipitant treatment, with AUC of 0.95 (10 fold cross validation). Loss of function (LOF) and protein coding variants are investigated in terms of VAS outcomes on the cohort of cases."}, "[5]": {"experiment": "Plasma concentration levels of tradipitant in healthy subjects (Example 2)", "method": "A study is conducted in which healthy subject participants are orally administered 85 mg tradipitant on study day 3, and then 85 mg tradipitant Q12H on study days 4-16. Plasma concentration levels of tradipitant are measured on each of day 3, day 7, and day 11.\nThis study illustrates that administration of 85 mg tradipitant qd (on day 3) produces an average plasma concentration over hours 0-12 that is about 50% of the plasma concentration observed in the PM group in Example 1. On days 7 and 11, the average plasma concentration over hours 0-12 following administration of 85 mg bid (specifically, Q12H) tradipitant is about 150% of the plasma concentration observed in the PM group in Example 1. The average plasma concentration over hours 0-12 at each point is determined by dividing the AUC for hours 0-12 (in (hr.)×(ng/mL)) by 12 hours."}},
  "data": [
    {"smiles": "O=C(c1ccccc1Cl)c1cccnc1-c1nnn(Cc2cc(C(F)(F)F)cc(C(F)(F)F)c2)c1-c1ccncc1", "note": "[Tradipitant]", "values": [
      {"measurement": "Genotype associated with worse Worst Itch (VAS) response", "setting": "[1]; INADL SNP rs370530530, minor allele CT, major allele C, treated cohort", "value": "CTCT"},
      {"measurement": "response as measured by change of Worst Itch (VAS), by genotype", "setting": "[1]; INADL rs11207834 TT genotype", "value": "itch scale improvement"},
      {"measurement": "response as measured by change of Worst Itch (VAS), by genotype", "setting": "[1]; INADL rs11207834 minor allele, 85 mg bid", "value": "decreased response to treatment"},
      {"measurement": "adverse event profile", "setting": "[2]; 100 mg qd", "value": "mild and similar to placebo"},
      {"measurement": "tolerability", "setting": "[2]; 100 mg qd", "value": "well-tolerated"},
      {"measurement": "endpoints corresponding to the underlying disease (SKINDEX, SCORAD objective, EASI and DLQI) vs placebo", "setting": "[2]; 100 mg qd, 4-week study", "value": "do not show any significant difference from placebo"},
      {"measurement": "CGIC", "setting": "[2]; AM group, 3-4 weeks", "value": 2.46},
      {"measurement": "DLQI change", "setting": "[2]; AM group, 3-4 weeks", "value": "−2.52"},
      {"measurement": "FBI", "setting": "[2]; AM group, 3-4 weeks", "value": 1.47},
      {"measurement": "SCORAD change", "setting": "[2]; AM group, 3-4 weeks", "value": "−9.58"},
      {"measurement": "VAS Average change", "setting": "[2]; AM group, 3-4 weeks", "value": "−54"},
      {"measurement": "VAS Worst change", "setting": "[2]; AM group, 3-4 weeks", "value": "−47.9"},
      {"measurement": "VRS change", "setting": "[2]; AM group, 3-4 weeks", "value": "−1.46"},
      {"measurement": "CGIC, Diff", "setting": "[2]; AM group", "value": "−1.15"},
      {"measurement": "DLQI change, Diff", "setting": "[2]; AM group", "value": 0.35},
      {"measurement": "FBI, Diff", "setting": "[2]; AM group", "value": 0.74},
      {"measurement": "SCORAD change, Diff", "setting": "[2]; AM group", "value": "−5.23"},
      {"measurement": "VAS Average change, Diff", "setting": "[2]; AM group", "value": "−23.7"},
      {"measurement": "VAS Worst change, Diff", "setting": "[2]; AM group", "value": "−21.9"},
      {"measurement": "VRS change, Diff", "setting": "[2]; AM group", "value": "−0.79"},
      {"measurement": "CGIC, Diff", "setting": "[2]; PM group", "value": 0.19},
      {"measurement": "DLQI change, Diff", "setting": "[2]; PM group", "value": "−1.89"},
      {"measurement": "FBI, Diff", "setting": "[2]; PM group", "value": "−0.39"},
      {"measurement": "SCORAD change, Diff", "setting": "[2]; PM group", "value": 0.88},
      {"measurement": "VAS Average change, Diff", "setting": "[2]; PM group", "value": 5.82},
      {"measurement": "VAS Worst change, Diff", "setting": "[2]; PM group", "value": 8.99},
      {"measurement": "VRS change, Diff", "setting": "[2]; PM group", "value": "−0.13"},
      {"measurement": "CGIC", "setting": "[2]; PM group, 3-4 weeks", "value": 2.47},
      {"measurement": "DLQI change", "setting": "[2]; PM group, 3-4 weeks", "value": "−5.45"},
      {"measurement": "FBI", "setting": "[2]; PM group, 3-4 weeks", "value": 1.01},
      {"measurement": "SCORAD change", "setting": "[2]; PM group, 3-4 weeks", "value": "−6.29"},
      {"measurement": "VAS Average change", "setting": "[2]; PM group, 3-4 weeks", "value": "−28.8"},
      {"measurement": "VAS Worst change", "setting": "[2]; PM group, 3-4 weeks", "value": "−32.3"},
      {"measurement": "VRS change", "setting": "[2]; PM group, 3-4 weeks", "value": "−1.29"},
      {"measurement": "improvement from baseline on 100 mm unit Visual Analog Scale (VAS) for itch", "setting": "[2]; all patients, 100 mg once a day in the evening, 3-4 weeks", "value": 40.5, "unit": "mm"},
      {"measurement": "average plasma concentration", "setting": "[3]; AM group, mean about 15 hours post last administration", "value": "about 225 ng/mL"},
      {"measurement": "plasma concentration at which patients tend to show greater efficacy", "setting": "[3]; PK-efficacy correlation", "value": "> 100", "unit": "ng/mL"},
      {"measurement": "average plasma concentration", "setting": "[3]; PM group, mean about 20 hours post last administration", "value": "about 125 ng/mL"},
      {"measurement": "response to tradipitant treatment of atopic dermatitis by genotype", "setting": "[4]; CTNNA3 rs57930837 AA genotype", "value": "a majority of rs57930837 AA individuals do not respond to treatment"},
      {"measurement": "response to tradipitant treatment of atopic dermatitis by genotype", "setting": "[4]; CTNNA3 rs57930837 CA genotype", "value": "a majority of individuals having a CA rs57930837 genotype respond to treatment"},
      {"measurement": "response to tradipitant treatment of atopic dermatitis by genotype", "setting": "[4]; CTNNA3 rs57930837 CC genotype", "value": "all individuals having a CC rs57930837 genotype respond to treatment"},
      {"measurement": "average plasma concentration over hours 0-12 relative to the PM group in Example 1", "setting": "[5]; 85 mg bid (Q12H), days 7 and 11", "value": "about 150%"},
      {"measurement": "average plasma concentration over hours 0-12 relative to the PM group in Example 1", "setting": "[5]; 85 mg qd, day 3", "value": "about 50%"}
    ]}
  ]
}
